Measurements from patent US4503068A, “Use of prostaglandin analogues to treat cytodamage” (priority 1982, dated 1985).
Where two headings read alike, the source gives them in different places.

Columns and labels:
in vivo = details: mouse, mice, oral, observed for 14 days
Description: Male JCL-ICR mice (non SPF mice) from 7 weeks of age were used. The compound under test was dissolved in 5% v/v ethanol containing 0.4% w/v Tween 80 (Tween is a registered trademark) and administered orally to the mice.

[1] = system: carbon tetrachloride (CCl4) induced liver damage; experiment: Effect on carbon tetrachloride (CCl4) induced liver damage (liver cell necrosis type); format: in vivo, Male Wistar rats; details: Rattus norvegicus; for inhibition in vivo at 0.5 mg/kg: 500 μg/kg 6 and 12 hr after CCl4; for inhibition in vivo at 1 mg/kg: 1000 μg/kg 6 and 12 hr after CCl4; for inhibition in vivo at 0.1 mg/kg: 100 μg/kg 6 and 12 hr after CCl4; for inhibition in vivo at 0.02 mg/kg: 20 μg/kg 6 and 12 hr after CCl4; for inhibition in vivo at 0.05 mg/kg: 50 μg/kg 6 and 12 hr after CCl4; for inhibition in vivo at 2 mg/kg: 2000 μg/kg 6 and 12 hr after CCl4
Description: Effect on carbon tetrachloride (CCl4) induced liver damage (liver cell necrosis type)
Male Wistar rats weighing 180-220 g were used. Rats were dosed intraperitoneally with CCl4 dissolved in olive oil (5% w/v) at a volume of 500 μl/kg after 18 hr starvation. The compound under test was administered orally (p.o.) or subcutaneously (s.c.) 6 and 12 hr after CCl4 injection in rats and blood was collected after 24 hr. Plasma glutamic oxaloacetic transaminase (GOT) and glutamic pyruvic transaminase (GPT) activities were determined by ultraviolet absorbance methods (optimised method based on the recommendations of the Deutsche Gesellschaft f/u/ r Klinische Chemie). The effects of the compounds tested were assessed by the inhibition rate in comparison with controls. Inhibition rate was calculated by the following formula. [formula]
(§1) In Tables 1 to 4 hereinafter the dose shown is the amount given at each administration of the compound under test.

[2] = system: α-naphthylisothiocyanate-induced liver damage; experiment: Effect on α-naphthylisothiocyanate-induced liver damage (cholangioatresia type); format: in vivo, Male Wistar rats; details: p.o., blood after 24 hr
Description: as §1
Effect on α-naphthylisothiocyanate-induced liver damage (cholangioatresia type)
Male Wistar rats weighing 190-220 g were used. After rats had fasted for 18 hr, α-naphthylisothiocyanate (ANIT) dissolved in olive oil (1.5% w/v) was given orally to them at 30 mg/kg body weight. The compound under test was administered orally 30 min before and 6 and 12 hr after administration of ANIT and blood was collected after 24 hr. Plasma GOT, GPT and bilirubin activities were determined and the results given in Table 3 show the inhibition rate compared with controls (calculation by the formula shown in Experiment 1).

[3] = system: D(+)-galactosamine hydrochloride-induced liver damage; experiment: Effect on D(+)-galactosamine hydrochloride-induced liver damage (hepatitis type); format: in vivo, Male Wistar rats; details: p.o.
Description: as §1
Effect on D(+)-galactosamine hydrochloride-induced liver damage (hepatitis type)
Male Wistar rats weighing 180-200 g were used. After the rats had fasted for 18 hr, 375 mg/kg galactosamine hydrochloride was administered to them intraperitoneally two times at 6 hr intervals. The compound under test was administered orally, 30 minutes before and, 6, 12 and 24 hr after the dose of D(+)-galactosamine hydrochloride and blood was collected after 24 and 48 hr. Plasma GOT and GPT activities were determined in the manner described in Experiment 1; plasma bilirubin activities were also determined. The effects were shown by the inhibition rate compared with controls (calculation by the formula shown in Experiment 1).

[4] = system: acute galactosamine-induced liver damage; details: in vivo; cited from earlier work
[5] = system: carbon tetrachloride-induced liver cell necrosis; details: in vivo; cited from earlier work
[6] = system: diet-induced acute pancreatitis; details: mice; cited from earlier work
endotoxin shock = details: dog; cited from earlier work
[7] = system: isolate perfused cat liver; details: cited from earlier work
[8] = system: endotoxin-induced lung injury; details: sheep; cited from earlier work
[9] = system: ischemic myocardial tissue; details: cat; cited from earlier work
[10] = sc, plasma GOT after 24 hr, read-out: inhibition rate, GOT
[11] = sc, plasma GPT after 24 hr, read-out: inhibition rate, GPT
[12] = po, plasma GOT after 24 hr, read-out: inhibition rate, GOT
[13] = po, plasma GPT after 24 hr, read-out: inhibition rate, GPT

With `CCCC[C@H](C)C[C@H](O)/C=C/[C@@H]1[C@H]2C[C@H](CCCCC(=O)CO)O[C@H]2C[C@H]1O` [Compound 9, 2-decarboxy-2-glycoloyl-17S,20-dimethyl-6S-PGI1] the LD50 at 336 h (in vivo) was over 50 mg/kg, the inhibition in vivo at 0.5 mg/kg [1, 10] was 58.4% and the inhibition in vivo at 0.5 mg/kg [1, 11] was 51.4%.
With `CCCC[C@H](C)C[C@H](O)/C=C/[C@@H]1[C@H]2CC(CCCCC(=O)OC)=N[C@H]2C[C@H]1O` [Compound 8, 17S,20-dimethyl-6,9α-nitrilo-PGI1 methyl ester] the “inhibition, GOT” value ([2]; 1000 μg/kg per administration) was 68.7%, the “inhibition, GPT” value ([2]; 1000 μg/kg per administration) was 76.1% and the “inhibition, bilirubin” value ([2]; 1000 μg/kg per administration) was 45.8%. For the same compound, the “inhibition rate, GOT 24 hr after” value ([3]; 1000 μg/kg per administration) was 40.2%, the “inhibition rate, GPT 24 hr after” value ([3]; 1000 μg/kg per administration) was 32.6% and the “inhibition rate, bilirubin 24 hr after” value ([3]; 1000 μg/kg per administration) was 12.1%. For the same compound, the “inhibition rate, GOT 48 hr after” value ([3]; 1000 μg/kg per administration) was 57.2%, the “inhibition rate, GPT 48 hr after” value ([3]; 1000 μg/kg per administration) was 47.6% and the “inhibition rate, bilirubin 48 hr after” value ([3]; 1000 μg/kg per administration) was 11.5%. The LD50 at 336 h (in vivo) was 40 to 100 mg/kg, the inhibition in vivo at 1 mg/kg [1, 12] was 41.1% and the inhibition in vivo at 1 mg/kg [1, 13] was 14.5%. The inhibition in vivo at 0.5 mg/kg [1, 10] was 65.6% and the inhibition in vivo at 0.5 mg/kg [1, 11] was 58.6%.
For `CCCC[C@H](C)[C@H](O)/C=C/[C@H]1[C@H](O)CC(=O)[C@@H]1CC(=O)CCCCC(=O)OC` [Compound 1, 16S-methyl-6-oxo-PGE1 methyl ester], the inhibition in vivo at 0.1 mg/kg [1, 12] was 59.9%, the inhibition in vivo at 0.1 mg/kg [1, 13] was 53.5% and the inhibition in vivo at 0.02 mg/kg [1, 10] was 27.8%. For the same compound, the inhibition in vivo at 0.02 mg/kg [1, 11] was 16.3%.
In the case of `CCCCC[C@](C)(O)/C=C/[C@H]1[C@H](O)CC(=O)[C@@H]1CC(=O)CCCCC(=O)O` [Compound 3, 15S-methyl-6-oxo-PGE1], the inhibition in vivo at 0.1 mg/kg [1, 12] is reported as 6.8% and the inhibition in vivo at 0.1 mg/kg [1, 13] is reported as 13.2%.
`CCCC[C@H](C)C[C@H](O)/C=C/[C@@H]1[C@H]2C[C@H](CCCCCO)O[C@H]2C[C@H]1O` [Compound 11, 17S,20-dimethyl-6S-PGI1 alcohol] showed an LD50 at 336 h (in vivo) of over 50 mg/kg, an inhibition in vivo at 0.5 mg/kg [1, 10] of 73.3% and an inhibition in vivo at 0.5 mg/kg [1, 11] of 65.2%.
For `CCCCC(C)(C)[C@H](O)/C=C/[C@H]1[C@H](O)CC(=O)[C@@H]1C/C=C\CCCC(=O)O` [16,16-dimethyl-PGE2], the “prevention of acute galactosamine-induced liver damage” value [4] is listed as “prevents” and the “prevention of carbon tetrachloride-induced liver cell necrosis” value [5] is listed as “prevents”.
For `CCCCC[C@H](O)/C=C/[C@H]1[C@H](O)CC(=O)[C@@H]1C/C=C\CCCC(=O)O` [PGE2], the “effect against diet-induced acute pancreatitis” value [6] is given as “effective”.
For `CCCCC[C@H](O)/C=C/[C@@H]1[C@H]2C/C(=C/CCCC(=O)O)O[C@H]2C[C@H]1O` [PGI2, (5Z,13E)-(9α,11α,15S)-6,9-epoxy-11,15-dihydroxyprosta-5,13-dienoic acid], the “effect on endotoxin shock” value (endotoxin shock) is given as “prevents and is useful in treating”, the “effect on hypoxia in the isolate perfused cat liver” value [7] is given as “prevents and is useful in treating” and the “effect on endotoxin-induced lung injury” value [8] is given as “prevents and is useful in treating”. For the same compound, the “effect on ischemic myocardial tissue” value [9] was “prevents and is useful in treating”.
Work on `O=C(CO)CCCC[C@H]1C[C@@H]2[C@@H](/C=C/[C@@H](O)C3CCCC3)[C@H](O)C[C@@H]2O1` [Compound 10, 2-decarboxy-2-glycoloyl-15-cyclopentyl-16,17,18,19,20-pentanor-6S-PGI] yielded an inhibition in vivo at 1 mg/kg [1, 10] of 11.8% and an inhibition in vivo at 1 mg/kg [1, 11] of 0%.
With `CCCC[C@H](C)C[C@H](O)/C=C/[C@@H]1[C@H]2C[C@H](CCCCC(=O)OC)O[C@H]2C[C@H]1O` [Compound 6, 17S,20-dimethyl-6S-PGI1 methyl ester] the “inhibition, GOT” value ([2]; 2000 μg/kg per administration) was 40.9%, the “inhibition, GPT” value ([2]; 2000 μg/kg per administration) was 44.6% and the “inhibition, bilirubin” value ([2]; 2000 μg/kg per administration) was 33.3%. The “inhibition rate, GOT 24 hr after” value ([3]; 2000 μg/kg per administration) was 50.2%, the “inhibition rate, GPT 24 hr after” value ([3]; 2000 μg/kg per administration) was 37.8% and the “inhibition rate, bilirubin 24 hr after” value ([3]; 2000 μg/kg per administration) was 31.8%. The “inhibition rate, GOT 48 hr after” value ([3]; 2000 μg/kg per administration) was 25.5%, the “inhibition rate, GPT 48 hr after” value ([3]; 2000 μg/kg per administration) was 21.4% and the “inhibition rate, bilirubin 48 hr after” value ([3]; 2000 μg/kg per administration) was 19.2%. For the same compound, the LD50 at 336 h (in vivo) was over 50 mg/kg, the inhibition in vivo at 0.5 mg/kg [1, 10] was 55.3% and the inhibition in vivo at 0.5 mg/kg [1, 11] was 64.6%.
In the case of `CCCC[C@H](C)C[C@H](O)/C=C/[C@H]1[C@H](O)CC(=O)[C@@H]1CC(=O)CCCCCO` [Compound 5, 17S,20-dimethyl-6-oxo-PGE1 alcohol], the “inhibition, GOT” value ([2]; 100 μg/kg per administration) is reported as 54.1%, the “inhibition, GPT” value ([2]; 100 μg/kg per administration) is reported as 53.1% and the “inhibition, bilirubin” value ([2]; 100 μg/kg per administration) is reported as 41.7%. The LD50 at 336 h (in vivo) was over 10 mg/kg, the inhibition in vivo at 0.05 mg/kg [1, 12] was 56.6% and the inhibition in vivo at 0.05 mg/kg [1, 13] was 59.1%.
With `CCCC[C@H](C)C[C@H](O)/C=C/[C@H]1[C@H](O)CC(=O)[C@@H]1CC(=O)CCCCC(=O)OC` [Compound 2, 17S,20-dimethyl-6-oxo-PGE1 methyl ester] the “inhibition, GOT” value ([2]; 100 μg/kg per administration) was 39.6%, the “inhibition, GPT” value ([2]; 100 μg/kg per administration) was 41.9% and the “inhibition, bilirubin” value ([2]; 100 μg/kg per administration) was 37.5%. For the same compound, the “inhibition rate, GOT 24 hr after” value ([3]; 100 μg/kg per administration) was 29.5%, the “inhibition rate, GPT 24 hr after” value ([3]; 100 μg/kg per administration) was 6.7% and the “inhibition rate, bilirubin 24 hr after” value ([3]; 100 μg/kg per administration) was 24.2%. The “inhibition rate, GOT 48 hr after” value ([3]; 100 μg/kg per administration) was 32.7%, the “inhibition rate, GPT 48 hr after” value ([3]; 100 μg/kg per administration) was 23.5% and the “inhibition rate, bilirubin 48 hr after” value ([3]; 100 μg/kg per administration) was 34.6%. For the same compound, the inhibition in vivo at 0.05 mg/kg [1, 12] was 61.5%, the inhibition in vivo at 0.05 mg/kg [1, 13] was 44.1% and the inhibition in vivo at 0.02 mg/kg [1, 10] was 37.9%. It also gave an inhibition in vivo at 0.02 mg/kg [1, 11] of 34.6%.
`CCCC[C@H](C)C[C@H](O)CC[C@H]1[C@H](O)CC(=O)[C@@H]1CC(=O)CCCCC(=O)OC` [Compound 4, 17S,20-dimethyl-13,14-dihydro-6-oxo-PGE1 methyl ester] showed an LD50 at 336 h (in vivo) of over 10 mg/kg, an inhibition in vivo at 0.1 mg/kg [1, 12] of 52.1% and an inhibition in vivo at 0.1 mg/kg [1, 13] of 62.3%.
With `CCCC1CCC(C(O)/C=C/[C@@H]2[C@H]3CC(CCCCCO)=N[C@H]3C[C@H]2O)C1` (single isomer, unassigned) [Compound 13, 15-(3-propylcyclopentyl)-16,17,18,19,20-pentanor-6,9α-nitrilo-PGI1 alcohol] the inhibition in vivo at 1 mg/kg [1, 12] was 53.6% and the inhibition in vivo at 1 mg/kg [1, 13] was 58.2%.
With `OCCCCC[C@H]1C[C@@H]2[C@@H](/C=C/[C@@H](O)C3CCCC3)[C@H](O)C[C@@H]2O1` [Compound 12, 15-cyclopentyl-16,17,18,19,20-pentanor-6S-PGI1 alcohol] the inhibition in vivo at 2 mg/kg [1, 12] was 7.4% and the inhibition in vivo at 2 mg/kg [1, 13] was 44.1%.
With `CCCC[C@H](C)C[C@H](O)/C=C/[C@@H]1[C@H]2CC(CC/C=C/C(=O)OC)O[C@H]2C[C@H]1O` (stereo partly drawn) [Compound 7, 17S,20-dimethyl-trans-Δ^2-6RS-PGI1 methyl ester] the inhibition in vivo at 1 mg/kg [1, 12] was 58% and the inhibition in vivo at 1 mg/kg [1, 13] was 42.7%.
